How the values were obtained:
in vitro [1] = settings: human, liver microsomes
Description: Half life in human liver microsomes at 0.5 uM in presence of NADPH by LC-MS/MS method

in vitro [2] = settings: mouse, liver microsomes
Description: Half life in mouse liver microsomes at 0.5 uM in presence of NADPH by LC-MS/MS method

in vitro [3] = settings: rat, liver microsomes
Description: Half life in rat liver microsomes at 0.5 uM in presence of NADPH by LC-MS/MS method

cells [4] = settings: Human immunodeficiency virus 1, subtype B NL4-3, MT2
in vitro [5] = settings: human, MT2 cells
Description: Cytotoxicity against human MT2 cells

in vivo [6] = settings: Sprague-Dawley, rat, po, 5 mg/kg
[7] = Dissociation constant, pKa of the compound; type: physicochemical
in vivo [8] = settings: Sprague-Dawley, rat, po, 5 mg/kg; remark: listed apart in the source
[9] = Oral bioavailability in Sprague-Dawley rat at 11.8 mg/kg via gavage up to 24 hrs by LC-MS/MS analysis; type: ADME, organism-based; settings: in vivo
Rattus norvegicus [10] = experiment: Dose normalized AUC in Sprague-Dawley rat at 11.8 mg/kg, po via gavage up to 24 hrs by LC-MS/MS analysis; type: ADME, organism-based; settings: in vivo
[11] = Dose normalized plasma concentration in Sprague-Dawley rat at 5 mg/kg, po via gavage after 24 hrs by LC-MS/MS analysis; type: ADME, organism-based; settings: in vivo
[12] = Dose normalized plasma concentration in Sprague-Dawley rat at 124 mg/kg, po via gavage after 24 hrs by LC-MS/MS analysis; type: ADME, organism-based; settings: in vivo
[13] = AUClast in Sprague-Dawley rat at 5 mg/kg, po via gavage up to 24 hrs by LC-MS/MS analysis; type: ADME, organism-based; parameters: time < 24 hr, dose 5 mg/kg, route oral; settings: in vivo
in vivo [14] = settings: Sprague-Dawley, rat, plasma, po, 5 mg/kg
Description: Plasma concentration in Sprague-Dawley rat at 5 mg/kg, po via gavage after 24 hrs by LC-MS/MS analysis

[15] = Total AUC in Sprague-Dawley rat at 124 mg/kg, po via gavage up to 24 hrs by LC-MS/MS analysis; type: ADME, organism-based; parameters: dose 124 mg/kg, time AUCmax, route oral; settings: in vivo
[16] = Cmax in Sprague-Dawley rat at 11.8 mg/kg, po via gavage by LC-MS/MS analysis; type: ADME, organism-based; parameters: dose 11.8 mg/kg, route oral; settings: in vivo
[17] = AUClast in Sprague-Dawley rat at 11.8 mg/kg, po via gavage up to 24 hrs by LC-MS/MS analysis; type: ADME, organism-based; parameters: dose 11.8 mg/kg, time < 24 hr, route oral; settings: in vivo
[18] = Dose normalized plasma concentration in Sprague-Dawley rat at 11.8 mg/kg, po via gavage after 24 hrs by LC-MS/MS analysis; type: ADME, organism-based; settings: in vivo
[19] = Tmax in Sprague-Dawley rat at 124 mg/kg, po via gavage by LC-MS/MS analysis; type: ADME, organism-based; settings: in vivo
[20] = Plasma concentration in Sprague-Dawley rat at 35 mg/kg, po via gavage after 24 hrs by LC-MS/MS analysis; type: ADME, organism-based
Rattus norvegicus [21] = experiment: Extrapolated AUC in Sprague-Dawley rat at 124 mg/kg, po via gavage up to 24 hrs by LC-MS/MS analysis; type: ADME, organism-based; settings: in vivo
[22] = Oral bioavailability in Sprague-Dawley rat at 124 mg/kg via gavage up to 24 hrs by LC-MS/MS analysis; type: ADME, organism-based; settings: in vivo
[23] = Plasma concentration in Sprague-Dawley rat at 11.8 mg/kg, po via gavage after 24 hrs by LC-MS/MS analysis; type: ADME, organism-based
[24] = Tmax in Sprague-Dawley rat at 5 mg/kg, po via gavage by LC-MS/MS analysis; type: ADME, organism-based; settings: in vivo
[25] = Total AUC in Sprague-Dawley rat at 35 mg/kg, po via gavage up to 24 hrs by LC-MS/MS analysis; type: ADME, organism-based; parameters: dose 35 mg/kg, time AUCmax, route oral; settings: in vivo
[26] = Oral bioavailability in Sprague-Dawley rat at 5 mg/kg via gavage up to 24 hrs by LC-MS/MS analysis; type: ADME, organism-based; settings: in vivo
[27] = Cmax in Sprague-Dawley rat at 35 mg/kg, po via gavage by LC-MS/MS analysis; type: ADME, organism-based; parameters: dose 35 mg/kg, route oral; settings: in vivo
Rattus norvegicus [28] = experiment: Extrapolated AUC in Sprague-Dawley rat at 35 mg/kg, po via gavage up to 24 hrs by LC-MS/MS analysis; type: ADME, organism-based; settings: in vivo
Rattus norvegicus [29] = experiment: Extrapolated AUC in Sprague-Dawley rat at 5 mg/kg, po via gavage up to 24 hrs by LC-MS/MS analysis; type: ADME, organism-based; settings: in vivo
Rattus norvegicus [30] = experiment: Dose normalized AUC in Sprague-Dawley rat at 124 mg/kg, po via gavage up to 24 hrs by LC-MS/MS analysis; type: ADME, organism-based; settings: in vivo
[31] = Dose normalized plasma concentration in Sprague-Dawley rat at 35 mg/kg, po via gavage after 24 hrs by LC-MS/MS analysis; type: ADME, organism-based; settings: in vivo
[32] = Cmax in Sprague-Dawley rat at 5 mg/kg, po via gavage by LC-MS/MS analysis; type: ADME, organism-based; parameters: dose 5 mg/kg, route oral; settings: in vivo
Rattus norvegicus [33] = experiment: Dose normalized AUC in Sprague-Dawley rat at 5 mg/kg, po via gavage up to 24 hrs by LC-MS/MS analysis; type: ADME, organism-based; settings: in vivo
[34] = AUClast in Sprague-Dawley rat at 124 mg/kg, po via gavage up to 24 hrs by LC-MS/MS analysis; type: ADME, organism-based; parameters: time < 24 hr, dose 124 mg/kg, route oral; settings: in vivo
[35] = AUClast in Sprague-Dawley rat at 35 mg/kg, po via gavage up to 24 hrs by LC-MS/MS analysis; type: ADME, organism-based; parameters: time < 24 hr, dose 35 mg/kg, route oral; settings: in vivo
[36] = Oral bioavailability in Sprague-Dawley rat at 35 mg/kg via gavage up to 24 hrs by LC-MS/MS analysis; type: ADME, organism-based; settings: in vivo
Rattus norvegicus [37] = experiment: Dose normalized AUC in Sprague-Dawley rat at 35 mg/kg, po via gavage up to 24 hrs by LC-MS/MS analysis; type: ADME, organism-based; settings: in vivo
[38] = Cmax in Sprague-Dawley rat at 124 mg/kg, po via gavage by LC-MS/MS analysis; type: ADME, organism-based; parameters: dose 124 mg/kg, route oral; settings: in vivo
[39] = Total AUC in Sprague-Dawley rat at 11.8 mg/kg, po via gavage up to 24 hrs by LC-MS/MS analysis; type: ADME, organism-based; parameters: dose 11.8 mg/kg, time AUCmax, route oral; settings: in vivo
[40] = Tmax in Sprague-Dawley rat at 11.8 mg/kg, po via gavage by LC-MS/MS analysis; type: ADME, organism-based; settings: in vivo
[41] = Tmax in Sprague-Dawley rat at 35 mg/kg, po via gavage by LC-MS/MS analysis; type: ADME, organism-based; settings: in vivo
[42] = Total AUC in Sprague-Dawley rat at 5 mg/kg, po via gavage up to 24 hrs by LC-MS/MS analysis; type: ADME, organism-based; parameters: dose 5 mg/kg, time AUCmax, route oral; settings: in vivo
[43] = Plasma concentration in Sprague-Dawley rat at 124 mg/kg, po via gavage after 24 hrs by LC-MS/MS analysis; type: ADME, organism-based
Rattus norvegicus [44] = experiment: Extrapolated AUC in Sprague-Dawley rat at 11.8 mg/kg, po via gavage up to 24 hrs by LC-MS/MS analysis; type: ADME, organism-based; settings: in vivo
cells [45] = settings: Human immunodeficiency virus 1, subtype B NL4-3, MT2; remark: listed apart in the source
Rattus norvegicus [46] = experiment: Toxicity in Sprague-Dawley rat at 5 to 124 mg/kg, po via gavage up to 24 hrs by LC-MS/MS analysis; type: organism-based; settings: in vivo

## C=C(C)[C@@H]1CC[C@]2(CNCCN(C)C)CC[C@]3(C)[C@H](CC[C@@H]4[C@@]5(C)CC=C(c6ccc(C(=O)O)cc6)C(C)(C)[C@@H]5CC[C@]43C)[C@@H]12
In vitro [1]
  half-life at 0.5 µM: > 2 h
In vitro [2]
  half-life at 0.5 µM: > 2 h
In vitro [3]
  half-life at 0.5 µM: > 2 h
Cells [4]
  IC50: 21 nM
In vitro [5]
  CC50: 1200 nM
In vivo [6]
  AUC(0-t) at 24 h: 1.28 µM·h

## C=C(C)[C@@H]1CC[C@]2(CNCCN3CCC(F)(F)CC3)CC[C@]3(C)[C@H](CC[C@@H]4[C@@]5(C)CC=C(c6ccc(C(=O)O)cc6)C(C)(C)[C@@H]5CC[C@]43C)[C@@H]12
In vitro [1]
  half-life at 0.5 µM: > 2 h
In vitro [2]
  half-life at 0.5 µM: > 2 h
In vitro [3]
  half-life at 0.5 µM: > 2 h
Cells [4]
  IC50: 57 nM
In vitro [5]
  CC50: 8500 nM
[7]
  pKa: 8.6

## C=C(C)[C@@H]1CC[C@]2(CNCCCN3CCOCC3)CC[C@]3(C)[C@H](CC[C@@H]4[C@@]5(C)CC=C(c6ccc(C(=O)O)cc6)C(C)(C)[C@@H]5CC[C@]43C)[C@@H]12
In vivo [8]
  AUC(0-t) at 6 h: 0.045 µM·h
Cells [4]
  IC50: 28 nM
In vitro [5]
  CC50: 2200 nM
[7]
  pKa: 8.2

## C=C(C)[C@@H]1CC[C@]2(CNCCN3CCOCC3)CC[C@]3(C)[C@H](CC[C@@H]4[C@@]5(C)CC=C(c6ccc(C(=O)O)cc6)C(C)(C)[C@@H]5CC[C@]43C)[C@@H]12
In vitro [1]
  half-life at 0.5 µM: 1.62 h
In vitro [2]
  half-life at 0.5 µM: 1.5 h
In vitro [3]
  half-life at 0.5 µM: > 2 h
Cells [4]
  IC50: 15 nM
In vitro [5]
  CC50: 5000 nM
[7]
  pKa: 8.2

## C=C(C)[C@@H]1CC[C@]2(CNCCCN3CCS(=O)(=O)CC3)CC[C@]3(C)[C@H](CC[C@@H]4[C@@]5(C)CC=C(c6ccc(C(=O)O)cc6)C(C)(C)[C@@H]5CC[C@]43C)[C@@H]12.Cl
[9]
  bioavailability: 8%
Rattus norvegicus [10]
  AUC/dose: 461 µM·h
[11]
  Cp/dose: 6.8 nM
[12]
  Cp/dose: 5.1 nM
[13]
  AUC(0-t) at 24 h: 2.99 µM·h
In vivo [14]
  concentration at 24 h: 34 nM
[15]
  AUC at 24 h: 29.1 µM·h
[16]
  Cmax: 285 nM
[17]
  AUC(0-t) at 24 h: 5.31 µM·h
[18]
  Cp/dose: 7.7 nM
[19]
  Tmax: 17.3 h
[20]
  concentration at 24 h: 234 nM
Rattus norvegicus [21]
  %AUCextra: 17%
[22]
  bioavailability: 4%
[23]
  concentration at 24 h: 91 nM
[24]
  Tmax: 6.7 h
[25]
  AUC at 24 h: 13.2 µM·h
[26]
  bioavailability: 12%
[27]
  Cmax: 451 nM
Rattus norvegicus [28]
  %AUCextra: 14%
Rattus norvegicus [29]
  %AUCextra: 8%
Rattus norvegicus [30]
  AUC/dose: 235 µM·h
[31]
  Cp/dose: 6.7 nM
[32]
  Cmax: 232 nM
Rattus norvegicus [33]
  AUC/dose: 650 µM·h
[34]
  AUC(0-t) at 24 h: 23.2 µM·h
[35]
  AUC(0-t) at 24 h: 11.4 µM·h
[36]
  bioavailability: 7%
Rattus norvegicus [37]
  AUC/dose: 378 µM·h
[38]
  Cmax: 697 nM
[39]
  AUC at 24 h: 5.44 µM·h
[40]
  Tmax: 4.7 h
[41]
  Tmax: 5.3 h
[42]
  AUC at 24 h: 3.25 µM·h
[43]
  concentration at 24 h: 635 nM
Rattus norvegicus [44]
  %AUCextra: 2%

## C=C(C)[C@@H]1CC[C@]2(C(=O)NCCN(C)C)CC[C@]3(C)[C@H](CC[C@@H]4[C@@]5(C)CC=C(c6ccc(C(=O)O)cc6)C(C)(C)[C@@H]5CC[C@]43C)[C@@H]12
In vitro [1]
  half-life at 0.5 µM: > 2 h
In vivo [14]
  concentration at 24 h: 27 nM
In vitro [2]
  half-life at 0.5 µM: > 2 h
Cells [45]
  EC50: 201 nM
In vitro [3]
  half-life at 0.5 µM: > 2 h
Cells [4]
  IC50: 31 nM
In vivo [6]
  AUC(0-t) at 24 h: 3.81 µM·h

## C=C(C)[C@@H]1CC[C@]2(CNCCCN3CCS(=O)(=O)CC3)CC[C@]3(C)[C@H](CC[C@@H]4[C@@]5(C)CC=C(c6ccc(C(=O)O)cc6)C(C)(C)[C@@H]5CC[C@]43C)[C@@H]12
Cells [45]
  EC50: 20 nM
In vivo [8]
  AUC(0-t) at 6 h: 1.71 µM·h
Rattus norvegicus [46]
  Activity: Non-Toxic
In vitro [5]
  CC50: 3500 nM
In vivo [6]
  AUC(0-t) at 24 h: 2.81 µM·h

## C=C(C)[C@@H]1CC[C@]2(CN(C)CCCN3CCS(=O)(=O)CC3)CC[C@]3(C)[C@H](CC[C@@H]4[C@@]5(C)CC=C(c6ccc(C(=O)O)cc6)C(C)(C)[C@@H]5CC[C@]43C)[C@@H]12
In vitro [1]
  half-life at 0.5 µM: > 2 h
In vitro [2]
  half-life at 0.5 µM: > 2 h
In vitro [3]
  half-life at 0.5 µM: > 2 h
In vivo [8]
  AUC(0-t) at 6 h: 4.83 µM·h
Cells [4]
  IC50: 26 nM
In vitro [5]
  CC50: 10000 nM
In vivo [6]
  AUC(0-t) at 24 h: 9.06 µM·h
